EC50 data for six compounds are collected here from BindingDB's records for patent US12115157 (Boehringer Ingelheim International, 2024).

The target of this experiment is G-protein coupled receptor 52 (Homo sapiens, UniProt Q9Y2T5). Kind of experiment: Homogeneous Time-Resolved Fluorescence (HTRF) Assay. The method, then: HTRF cAMP assays were performed using commercially available assay kits according to the manufacturer's instructions (cAMP Dynamic 2 Assay Kit; #62AM4PEJ, Cisbio Bioassays, Bedford, MA). An aliquot of CHO-K1 cells stably expressing recombinant human GPR52 was thawed and resuspended in cell buffer (1×PBS (w/o Ca2+/Mg2+)) at a density of 4×10^5 cells per mL. Test compounds were solubilized in DMSO to 10 mM stock solutions and serially diluted in DMSO using 6-fold dilutions to generate 8-point dose response curves. These serially diluted samples were then diluted 1:50 in compound dilution buffer (1×PBS (w/o Ca2+/Mg2+) containing 0.5 mM IBMX, 0.1% BSA) to achieve a 4× stock. The diluted compounds were transferred (5 μL per well) in duplicate to the 384-well assay plate (Optiplate #6007290, PerkinElmer, Waltham, MA). Both a positive (reference compound) and negative (non-stimulated vehicle) control was included in each assay run in column 23. The cell suspension was subsequently dispensed into the 384-well assay plates at 15 μL per well (6000 cells) such that the compound was diluted to 1×. […] After a one-hour incubation at room temperature, 10 μL of cAMP D2 reagent followed by 10 μL of cryptate reagent (provided in the Cisbio kit) was added to each well. Plates were then incubated at room temperature for one hour prior to reading. Time-resolved fluorescence measurements were collected on an EnVision HTRF plate reader (PerkinElmer, Waltham, MA).
In general terms: In TR-FRET formats the signal depends on donor and acceptor labels being close together.

Sequence of G-protein coupled receptor 52 (Q9Y2T5 whole entry): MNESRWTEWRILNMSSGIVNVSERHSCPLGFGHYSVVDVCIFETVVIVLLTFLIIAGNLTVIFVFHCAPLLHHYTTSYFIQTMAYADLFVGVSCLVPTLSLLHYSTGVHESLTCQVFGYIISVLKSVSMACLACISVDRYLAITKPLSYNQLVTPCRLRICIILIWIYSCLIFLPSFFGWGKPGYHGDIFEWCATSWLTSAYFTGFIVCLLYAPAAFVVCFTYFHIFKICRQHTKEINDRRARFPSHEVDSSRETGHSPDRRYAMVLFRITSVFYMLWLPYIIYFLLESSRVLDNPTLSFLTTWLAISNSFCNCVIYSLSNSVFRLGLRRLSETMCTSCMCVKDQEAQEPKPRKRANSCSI

What is called EC50 is the concentration needed to bring the measured effect to its halfway point. A high value points to a less potent agent. The compound `CC(=O)N1C[C@@H](NC(=O)c2nccnc2N2CC(Oc3ccc(F)c(F)c3)C2)C(F)(F)C1` [US12115157, Ex. 8a] came in with an EC50 of 1.09 µM.

As for `CC(=O)N1C[C@H](NC(=O)c2nccnc2N2CC(Oc3ccc(F)c(F)c3)C2)C(F)(F)C1` [US12115157, Ex. 8b], the EC50 stood at 0.007 µM. The compound `CC(=O)N1C[C@@H](NC(=O)c2nccnc2N2CC(Oc3cc(F)c(F)c(F)c3)C2)C(F)(F)C1` [US12115157, Ex. 11a] displayed an EC50 of 1.28 µM. The figure for `CC(=O)N1C[C@H](NC(=O)c2nccnc2N2CC(Oc3cc(F)c(F)c(F)c3)C2)C(F)(F)C1` [US12115157, Ex. 11b] is 0.01 µM; for `CC(=O)N1C[C@@H](NC(=O)c2nsnc2N2CC(Oc3ccc(F)c(F)c3)C2)C(F)(F)C1` [US12115157, Ex. 13a] it is 0.595 µM; for `CC(=O)N1C[C@H](NC(=O)c2nsnc2N2CC(Oc3ccc(F)c(F)c3)C2)C(F)(F)C1` [US12115157, Ex. 13b] it is 0.003 µM.
